Data set [1] in a line: Phase 1, open-label, single-dose PK study of valbenazine in subjects with normal renal function or severe renal impairment. In kind it is in vivo, human. To be noted: for effect of severe renal impairment on AUC0-∞ / effect of severe renal impairment on Cmax: single dose valbenazine 40 mg (free base equivalent as ditosylate), fasted, severe renal impairment compared to normal renal function; for effect of renal status on protein binding: severe renal impairment vs normal renal function. The method, then:
(§1) This was a Phase 1, open-label, single-dose, PK study of valbenazine to assess the safety and PK of valbenazine and its metabolites in subjects with normal renal function or severe renal impairment. A total of 16 subjects (8 with severe renal impairment and 8 with normal renal function) received a single dose of valbenazine 40 mg (free base equivalent as the ditosylate salt) under fasted conditions.

For data set [2] the following is noted: cited from earlier work.
Data set [3] can be described thus: Safety and tolerability in the Phase 1 single-dose study (TEAEs, laboratory tests, vital signs, ECG). It is filed as in vivo, human. The protocol: as §1
Where [4] appears, read: valbenazine 40 mg single dose, all 16 subjects.

SMILES strings stand for the structures.

The text below walks through data of patent publication US10940141B1, “Methods for the administration of certain VMAT2 inhibitors” (Neurocrine Biosciences, Inc., priority 2019, dated 2021).

As for `COc1cc2c(cc1OC)[C@H]1C[C@@H](O)[C@H](CC(C)C)CN1CC2` [NBI-98782, (2R, 3R,11bR)-3-isobutyl-9,10-dimethoxy-1,3,4,6,7,11b-hexahydro-2H-pyrido[2,1-a]isoquinolin-2-ol], in data set [1], the “effect of severe renal impairment on AUC0-∞” value (shortened to “effect … on AUC0-∞”) is on record as “no clinically meaningful effect” and the “effect of severe renal impairment on Cmax” value (from here on “effect … on Cmax”) is reported as “no clinically meaningful effect”. Moreover, in data set [1] (single dose valbenazine 40 mg), the “effect of renal status on protein binding” value is given as “little effect”.
With `COc1cc2c(cc1OC)[C@H]1C[C@@H](OC(=O)[C@@H](N)C(C)(C)O)[C@H](CC(C)C)CN1CC2` [NBI-136110], in data set [1], the “effect … on AUC0-∞” value is “no clinically meaningful effect” and the “effect … on Cmax” value is on record as “no clinically meaningful effect”.
`COc1cc2c(cc1OC)[C@H]1C[C@@H](OC(=O)[C@@H](N)C(C)C)[C@H](CC(C)C)CN1CC2` [Valbenazine ditosylate, L-Valine, (2R,3R,11bR)-1,3,4,6,7,11b-hexahydro-9,10-dimethoxy-3-(2-methylpropyl)-2H-benzo[a]quinolizin-2-yl ester, 4-methylbenzenesulfonate (1:2)]: in data set [2], the solubility in water result was “slightly soluble”.
Turning to `COc1cc2c(cc1OC)[C@H]1C[C@@H](OC(=O)[C@@H](N)C(C)C)[C@H](CC(C)C)CN1CC2` [valbenazine, (S)-2-amino-3-methyl-butyric acid (2R, 3R,11bR)-3-isobutyl-9,10-dimethoxy-1,3,4,6,7,11b-hexahydro-2H-pyrido[2,1-a]isoquinolin-2-yl ester], in data set [1] (single dose valbenazine 40 mg), the “urine clearance in subjects with severe renal impairment compared with normal renal function” value is given as “reduction” and the “effect of renal status on protein binding” value is recorded as “little effect”. Also, in data set [1], the “effect … on AUC0-∞” value is on record as “no clinically meaningful effect” and the “effect … on Cmax” value is “no clinically meaningful effect”. For the same molecule, in data set [3] (normal renal function group), the “treatment-related TEAE headache” value is 1 subject and the “treatment-related TEAE somnolence” value worked out at 1 subject. Further, in data set [3] (severe renal impairment group), the “treatment-related TEAE somnolence” value turned out to be 1 subject and the “treatment-related TEAE vision blurred” value is on record as 1 subject. For the same molecule, in data set [3] (valbenazine 40 mg single dose), the “subjects with QTcF increase from baseline >60 msec” value was “No subject” and the “subjects with QTcF interval >480 msec” value is “No subject”. In addition, in data set [3] (valbenazine 40 mg single dose, 8 subjects per group (normal renal function; severe renal impairment)), the “subjects who experienced TEAEs, each of the renal function groups” value is reported as 2 (25.0%) subjects. Further, the tolerability result in data set [3] (valbenazine 40 mg single dose, 16 subjects (8 normal renal function, 8 severe renal impairment)) is reported as “well tolerated”. In data set [3] (setting [4]), the “deaths, serious or severe TEAEs, or discontinuations due to a TEAE” value is listed as “no deaths, serious or severe TEAEs, or discontinuations due to a TEAE”; the “subjects who experienced TEAEs, overall” value was 4 (25.0%) subjects; the “treatment-related TEAEs reported” value is given as 3 subjects. In addition, the “changes in clinical laboratory tests, vital sign measurements, weight, or ECG parameters” value in data set [3] (valbenazine 40 mg single dose, during the study) was “no clinically significant changes”.
